Assay results published in patent publication US10954193B2 (Vanderbilt University, priority 2013, dated 2021).
Like-named read-outs stand apart in the source and are kept apart here.

Tests used:
MV-4-11 [1] = experiment: Cellular viability assay, CellTiter-Glo, MV-4-11; format: cell-based; details: Homo sapiens, MV4-11, Table 6 viability assay (method: reduced serum, 1% FBS), read-out: EC50 on cellular viability, NV-4-11
Procedure: (§1) Cellular Viability of a Human Tumor Cell Lines
(§2) Human cancer cell lines NCI-H23, K562, NCI-H929, and MV-4-11 were cultured in media supplemented with 10% fetal bovine serum (FBS). To evaluate compound effect on cellular proliferation, cells were plated at 1,000 cells/well in 96-well tissue culture plates in a total volume of 90 uL medium supplemented with 10% FBS (Sigma, Saint Louis, Mo.). 24 hours later, 10 uL of compound (in a 2-fold serial dilution) is added to the cells for a top concentration of 50 uM and a final DMSO concentration <1%. After 72 hours, cell number was measured using the CellTiter-Glo Luminescent assay according to manufacturer's recommendations (Promega, Madison, Wis.). A viability assay in reduced serum was also conducted. Cells were plated at 5,000 cells/well in 96-well plates in a total volume of 100 uL medium supplemented with 10% FBS (Sigma, Saint Louis, Mo.). 24 hours later, the medium was replaced with 90 uL medium containing 1% FBS and the assay conducted as described. EC50 values were determined by plotting growth against compound concentration in a 4-parameter logisitic model in XLFit.

[2] = biological target: recombinant Mcl-1 (residues 172-327) (Homo sapiens (Human), UniProt Q07820); experiment: Bak peptide binding assay, fluorescence polarization anisotropy competition (FITC-Bak), Mcl-1; details: FITC-Bak peptide 10 nM, Mcl-1 14 nM;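 note: displacement of labeled Bak peptide read by fluorescence anisotropy, 10-point threefold dilutions from 20 µM top dose in 5% DMSO, 90 min incubation at room temperature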
Procedure: Compound affinity was measured using a fluorescence polarization anisotropy competition assay. Anisotropy measurements were carried out in 384-well, black, flat-bottom plates (Greiner Bio-one, Monroe, N.C., USA). […] 10 nM FITC-Bak peptide and 14 nM recombinant Mcl-1 (residues 172-327) were added to assay buffer (3 mM dithiothreitol, 50 mM NaCl, 20 mM Tris, pH 7.5).

NCI-H929 = experiment: Cellular proliferation, CellTiter-Glo, NCI-H929; format: cell-based; details: Homo sapiens, 10% FBS, 72 hours
Procedure: as §1, §2

K562 [3] = experiment: Cellular proliferation, CellTiter-Glo, K562; format: cell-based; details: Homo sapiens, 10% FBS, 72 hours
Procedure: as §1, §2

NCI-H23 [4] = experiment: Cellular viability assay, CellTiter-Glo, NCI-H23; format: cell-based; details: Homo sapiens, Table 6 viability assay (method: reduced serum, 1% FBS)
Procedure: as §1, §2

K562 [5] = experiment: Cellular viability assay, CellTiter-Glo, K562; format: cell-based; details: Homo sapiens, Table 6 viability assay (method: reduced serum, 1% FBS)
Procedure: as §1, §2

MV-4-11 [6] = experiment: Cellular proliferation, CellTiter-Glo, MV-4-11; format: cell-based; details: Homo sapiens, MV4-11, 10% FBS, 72 hours, read-out: EC50 on cellular proliferation, NV-4-11
Procedure: as §1, §2

[7] = biological target: Bcl-xL (residues 1-209, loop 45-86 deleted) (Homo sapiens (Human), UniProt Q07817, DEL45-86); experiment: Bak peptide binding assay, fluorescence polarization anisotropy competition (FITC-Bak), Bcl-xL selectivity; details: Table 4; FITC-Bak peptide 10 nM, Bcl-xL 4 nM
Procedure: (§3) Bak Peptide Binding Assay
(§4) Compound affinity was measured using a fluorescence polarization anisotropy competition assay. Anisotropy measurements were carried out in 384-well, black, flat-bottom plates (Greiner Bio-one, Monroe, N.C., USA). The assay was run using a fluorescein isothiocyanate-labeled BH3 peptide derived from Bak (FITC-AHx-[…]-NH2) that was purchased from GenScript (Piscataway, N.J.) at >95% purity and used without further purification. 10 nM FITC-Bak peptide and 14 nM recombinant Mcl-1 (residues 172-327) were added to assay buffer (3 mM dithiothreitol, 50 mM NaCl, 20 mM Tris, pH 7.5). For selectivity assays, 40 nM Bcl-2 (residues 1-207^A96T,G110R, Δ35-91, replaced with Bcl-xL35-50) or 4 nM Bcl-xL (residues 1-209, loop 45-86 deleted) were incubated with 10 nM FITC-Bak in assay buffer.
(§5) Compounds are diluted in DMSO in a 10-point, 3-fold serial dilution scheme. 2.5 uL compound is added to 47.5 uL of assay buffer containing FITC-Bak and protein, for a final DMSO concentration of 5% and a top concentration of 20 uM. […] The plate was mixed and incubated for 90 minutes at room temperature. Anisotropy is measured at excitation wavelength 480 nm and emission wavelength 535 nm using an EnVision Multi-label plate reader (PerkinElmer, Wellesley, Mass., USA). Fluorescence anisotropy is plotted against compound concentration to generate an IC50 (inhibitor concentration at which 50% of bound peptide is displaced) by fitting the data to a 4-parameter logistic model using XLFit software (Guildford, Surrey, UK). IC50 is converted to a binding dissociation constant (Ki value) according to the formula of Wang Z. FEBS Lett (1996) 3, 245: Ki=[I]50/([L]50/Kd+[P]0/Kd+1) where [I]50 is the concentration of the free inhibitor at 50% inhibition, [L]50 is the concentration of the free labeled ligand at 50% inhibition, [P]0 is the concentration of the free protein at 0% inhibition, Kd represents the dissociation constant of the FITC peptide probe.

[8] = biological target: Bcl-2 (residues 1-207 A96T,G110R, Δ35-91, replaced with Bcl-xL35-50) (Homo sapiens (Human), UniProt P10415, DEL35-91/INS34DVEENRTEAPEGTESE); experiment: Bak peptide binding assay, fluorescence polarization anisotropy competition (FITC-Bak), Bcl-2 selectivity; details: Table 4; FITC-Bak peptide 10 nM, Bcl-2 40 nM
Procedure: as §3, §4, §5

NCI-H23 [9] = experiment: Cellular proliferation, CellTiter-Glo, NCI-H23; format: cell-based; details: Homo sapiens, 10% FBS, 72 hours
Procedure: as §1, §2

[10] = Table 3, binned ranges, read-out: Ki for inhibition of Mcl-1

Sequence of Bcl-xL (residues 1-209, loop 45-86 deleted) (Q07817 other isoform, or with tags, fused parts or gaps del 45-86): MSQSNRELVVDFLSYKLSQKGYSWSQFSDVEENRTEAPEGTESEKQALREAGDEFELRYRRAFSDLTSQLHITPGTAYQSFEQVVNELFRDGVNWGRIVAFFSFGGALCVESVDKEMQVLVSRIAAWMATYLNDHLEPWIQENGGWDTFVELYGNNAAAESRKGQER
Sequence of recombinant Mcl-1 (residues 172-327) (Q07820 172-327): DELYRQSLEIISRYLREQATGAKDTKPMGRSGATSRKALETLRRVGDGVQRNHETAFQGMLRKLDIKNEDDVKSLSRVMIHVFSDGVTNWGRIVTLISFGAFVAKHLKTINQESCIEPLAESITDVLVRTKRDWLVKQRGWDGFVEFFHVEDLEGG
Sequence of Bcl-2 (residues 1-207 A96T,G110R, Δ35-91, replaced with Bcl-xL35-50) (P10415 other isoform, or with tags, fused parts or gaps, stated change not applied): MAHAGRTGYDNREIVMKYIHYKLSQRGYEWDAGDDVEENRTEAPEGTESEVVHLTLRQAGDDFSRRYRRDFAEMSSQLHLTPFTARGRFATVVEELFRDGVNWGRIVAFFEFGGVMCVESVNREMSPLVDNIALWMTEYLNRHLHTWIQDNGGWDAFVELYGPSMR

Row | SMILES | Ki [2, 10] [µM] | EC50 (K562 [3]) [µM] | Ki [7] [µM] | Ki ([2]; Table 4, read-out: Ki Mcl-1) [µM] | further results
1 | Cc1cnccc1-c1cccc2c(CCCOc3cc(C)c(Cl)c(C)c3)c(C)n(CCC(=O)NS(C)(=O)=O)c12 [Example 83, 3-(3-(3-(4-chloro-3,5-dimethylphenoxy)propyl)-2-methyl-7-(3-methylpyridin-4-yl)-1H-indol-1-yl)-N-(methylsulfonyl)propanamide] | ≤ 0.1 |  |  |  | EC50 (MV-4-11 [1]): 1.9 µM
2 | Cc1cc(OCCCc2c(C)n(CCC(=O)O)c3c(-c4c(C)nn(C)c4C)c(Cl)ccc23)cc(C)c1Cl [Example 104, 3-(6-chloro-3-(3-(4-chloro-3,5-dimethylphenoxy)propyl)-2-methyl-7-(1,3,5-trimethyl-1H-pyrazol-4-yl)-1H-indol-1-yl)propanoic acid] | ≤ 0.1 | 24.8 |  |  | EC50 (NCI-H929): 20 µM
3 | Cc1ccncc1-c1cccc2c(CCCOc3cc(C)c(Cl)c(C)c3)c(C)n(CCC(=O)O)c12 [Example 71, 3-(3-(3-(4-chloro-3,5-dimethylphenoxy)propyl)-2-methyl-7-(4-methylpyridin-3-yl)-1H-indol-1-yl)propanoic acid] | ≤ 0.1 |  |  |  | EC50 (NCI-H23 [4]): 9.9 µM; EC50 (K562 [5]): 7 µM
4 | Cc1cc(OCCCc2c(C)n(CCC(=O)O)c3c(-c4c(C)nn(C(C)C)c4C)cccc23)cc(C)c1Cl [Example 78, 3-(3-(3-(4-chloro-3,5-dimethylphenoxy)propyl)-7-(1-isopropyl-3,5-dimethyl-1H-pyrazol-4-yl)-2-methyl-1H-indol-1-yl)propanoic acid] | ≤ 0.1 | 10 |  |  | EC50 (MV-4-11 [6]): 12.9 µM
5 | Cc1cc(OCCCc2c(C(F)(F)F)n(Cc3ccc(CC(=O)O)cc3)c3c(-c4c(C)nn(C)c4C)cccc23)cc(C)c1Cl [Example 117, 2-(4-((3-(3-(4-chloro-3,5-dimethylphenoxy)propyl)-2-(trifluoromethyl)-7-(1,3,5-trimethyl-1H-pyrazol-4-yl)-1H-indol-1-yl)methyl)phenyl)acetic acid] | ≤ 0.1 | 14.8 |  |  | EC50 (NCI-H929): 8.8 µM
6 | Cc1cc(OCCCc2c(C)n(CCC(=O)O)c3cc(Cl)ccc23)cc(C)c1Cl [Example 44, 3-(6-chloro-3-(3-(4-chloro-3,5-dimethylphenoxy)propyl)-2-methyl-1H-indol-1-yl)propanoic acid] | 0.101 to 0.299 |  | 7.9 | 0.17 | 
7 | Cc1cc(OCCCc2c(C)n(Cc3cccc(C(=O)O)c3)c3c(-c4c(C)n[nH]c4C)cccc23)cc(C)c1Cl [Example 100, 3-((3-(3-(4-chloro-3,5-dimethylphenoxy)propyl)-7-(3,5-dimethyl-1H-pyrazol-4-yl)-2-methyl-1H-indol-1-yl)methyl)benzoic acid] | ≤ 0.1 |  | 4.7 | 0.01 | Ki [8]: 1.2 µM
8 | Cc1cc(OCCCc2c(C)n(CCC(=O)O)c3c(-c4ccnn4C)cccc23)cc(C)c1Cl [Example 70, 3-(3-(3-(4-chloro-3,5-dimethylphenoxy)propyl)-2-methyl-7-(1-methyl-1H-pyrazol-5-yl)-1H-indol-1-yl)propanoic acid] | ≤ 0.1 |  |  |  | EC50 (NCI-H23 [4]): 5.8 µM; EC50 (K562 [5]): 4.1 µM
9 | Cc1cc(OCCCc2cn(CCC(=O)NS(C)(=O)=O)c3cc(Cl)ccc23)cc(C)c1Cl [Example 20, 3-(6-chloro-3-(3-(4-chloro-3,5-dimethylphenoxy)propyl)-1H-indol-1-yl)-N-(methylsulfonyl)propanamide] | 0.101 to 0.299 |  | 10 | 0.36 | 
10 | Cc1cc(OCCCc2c(C)n(Cc3ccc(C(=O)O)o3)c3c(-c4c(C)n[nH]c4C)cccc23)cc(C)c1Cl [Example 99, 5-((3-(3-(4-chloro-3,5-dimethylphenoxy)propyl)-7-(3,5-dimethyl-1H-pyrazol-4-yl)-2-methyl-1H-indol-1-yl)methyl)furan-2-carboxylic acid] | ≤ 0.1 |  | 9.3 | 0.011 | Ki [8]: 2.9 µM
11 | Cc1cc(OCCCc2c(C)n(CCC(=O)O)c3c(-c4c(C)nn(C)c4C)cccc23)cc(C)c1Cl [Example 76, 3-(3-(3-(4-chloro-3,5-dimethylphenoxy)propyl)-2-methyl-7-(1,3,5-trimethyl-1H-pyrazol-4-yl)-1H-indol-1-yl)propanoic acid] | ≤ 0.1 | 17.1 | 7.9 | 0.007 | Ki [8]: 7.1 µM; EC50 (MV-4-11 [6]): 16.2 µM; EC50 (MV-4-11 [1]): 2.8 µM
12 | Cc1cc(OCCCc2cn(CCC(=O)NS(=O)(=O)Cc3ccccc3)c3cc(Cl)ccc23)cc(C)c1Cl [Example 38, N-(benzylsulfonyl)-3-(6-chloro-3-(3-(4-chloro-3,5-dimethylphenoxy)propyl)-1H-indol-1-yl)propanamide] | 0.301 to 0.5 |  |  |  | 
13 | Cc1cc(OCCCc2c(C)n(CCC(=O)O)c3c(-c4c(C)n[nH]c4C)cccc23)cc(C)c1Cl [Example 74, 3-(3-(3-(4-chloro-3,5-dimethylphenoxy)propyl)-7-(3,5-dimethyl-1H-pyrazol-4-yl)-2-methyl-1H-indol-1-yl)propanoic acid] | ≤ 0.1 | 21.2 |  |  | EC50 (MV-4-11 [6]): 11.5 µM; EC50 (NCI-H23 [9]): 19.8 µM; EC50 (NCI-H23 [4]): 5.4 µM; EC50 (K562 [5]): 2 µM
